Reference: patent publication US20240166686A1, “THERAPEUTIC PEPTIDES” (Kyoto University, priority 2017, published 2024)
Where two headings read alike, the source gives them in different places.

How the values were obtained:
[1] = test system: ddY mouse; assay: Elevated plus-maze (EPM) test; format: in vivo
Description: The test was conducted 30 minutes after oral administration of a sample, and the evaluation was conducted based on the 5-minute test time. 23 to 27 g male ddY mice were used as animals to be studied. Cumulative time in open arms was recorded, and the percentage (%) of the time in open arms was used as an index for an anxiolytic-like effect.
The anxiolytic-like effect of a peptide or peptide conjugate can be evaluated by an elevated plus-maze test which has been developed as an anxiety-related behavior evaluation method for screening for anti-anxiety agents and is widely used (FIG. 1). Specifically, a candidate substance is orally or intraperitoneally administered to each mouse. 30 minutes later, the mouse is placed in an elevated plus-maze. The strength of the anxiolytic-like effect can be evaluated by using the number of entries into open arms and change in residence time in the open arms as indexes.
(§1) The elevated plus-maze consists of two open arms (25 cm×5 cm) and two closed arms (25 cm×5 cm×15 cm), and these arms are connected to a central platform elevated by 50 cm from the floor (see FIG. 1). In spite of such an elevated position, mice can walk safely in the closed arms because the closed arms are fenced. On the other hand, mice waking in the open arms feel anxious about falling from the elevated position because the open arms are open without being fenced. Therefore, a longer time when a mouse stays in the open arms means that mouse's feeling of anxiety is more alleviated, and serves as an index for an anxiolytic-like effect.
(§2) As shown in the right diagram of FIG. 1, a sample was administered to each mouse (ddY mouse, male, 23 to 27 g) 30 minutes before the test. 30 minutes later, the mouse was placed on the central platform facing one of the open arms to start the test. Cumulative time in the open arms was recorded during the 5-minute test time. The percentage of the time in the open arms was calculated as an index for an anxiolytic-like effect.
The data obtained by the test was indicated by the sum of a mean and a standard error of the mean (SEM). The data shown in FIGS. 1 to 9, 17, 18, 20, and 21 was analyzed by one-way or two-way ANOVA. Subsequently, study was conducted for multiple comparison by the Tukey Kramer method. P-value of <0.05 is denoted in the drawings as “*”; p-value of <0.01 is denoted in the drawings as “**”.

[2] = test system: ddY mice; details: general statement on anti-depressant drugs; cited from earlier work
[3] = test system: ddY mice; assay: Tail suspension test; format: in vivo, mouse; details: 30 min before 6-min suspension
Description: Antidepressant-like effect can be evaluated by a tail suspension test. The tail suspension test is an experimental method used to screen potential antidepressant drugs (Can et al., 2012, J Vis Exp., 59:e3769). The amount of time that a mouse is immobile (i.e. is not displaying escape behavior) during the six minutes is measured to provide an immobility time. […] Therefore, if a reduction of immobility time is observed when testing a test substance, it can be concluded that the test substance has anti-depressant properties. Immobility is considered a despair state, and, therefore, a reduction of immobility time also indicates an increase in motivation (i.e., that the test substance has motivation-increasing properties).
The peptide SYLPPLT (SEQ ID NO: 4) was administered orally to mice (ddY mice, males, 24˜30 g) at 0.03 mg/kg, 0.1 mg/kg or 0.3 mg/kg and 30 minutes later the mice were suspended by their tails for six minutes.(n=11 to 14)

[4] = target: T1, serotonin 5-HT1A receptor (Mus musculus, UniProt Q64264); assay: Elevated plus-maze test with 5-HT1A receptor antagonist WAY100135; format: in vivo; details: elevated plus-maze with or without WAY100135
T1 construct: from tissue; host or cells: whole living animal (ddY mouse, male)
T1 sequence (Q64264 1-421): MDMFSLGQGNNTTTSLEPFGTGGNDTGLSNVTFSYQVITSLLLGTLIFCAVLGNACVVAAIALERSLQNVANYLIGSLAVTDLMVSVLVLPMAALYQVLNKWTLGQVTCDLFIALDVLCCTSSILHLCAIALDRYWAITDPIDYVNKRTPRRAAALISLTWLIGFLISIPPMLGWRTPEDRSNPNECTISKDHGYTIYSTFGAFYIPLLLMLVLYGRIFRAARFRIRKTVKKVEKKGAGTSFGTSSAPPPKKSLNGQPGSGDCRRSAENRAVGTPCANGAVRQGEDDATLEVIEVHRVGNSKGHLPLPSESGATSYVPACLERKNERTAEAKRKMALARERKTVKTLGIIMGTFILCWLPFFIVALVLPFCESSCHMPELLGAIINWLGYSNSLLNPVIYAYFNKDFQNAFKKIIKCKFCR
From the text: as §1, §2
The peptide SYLPPLTT (SEQ ID NO: 1) or the peptide SYLPPLT (SEQ ID NO: 4) (dose: 1.0 mg/kg) was used in combination with a serotonin 5-HT1A receptor antagonist WAY100135 (dose: 10 mg/kg) and orally administered (p.o.) to each mouse, which was then used in the elevated plus-maze test (n=4 to 6).
The peptide YHIEPV (SEQ ID NO:2) was orally administered as a sample to mice 30 minutes before an elevated plus-maze test, with or without WAY100135, an antagonist selective for 5-HT1A receptor (n=13-15). WAY100135 was administered 50 minutes before the elevated plus-maze test. Separately, the peptide YHIEPV (SEQ ID NO:2) was orally administered as a sample to mice 30 minutes before an elevated plus-maze test, with or without naltrindole, an […] receptor antagonist, which was administered 50 minutes before the elevated plus-maze test (n=11-15).

[5] = target: T2, δ opioid receptor (Mus musculus, UniProt P32300); assay: Elevated plus-maze test with opioid receptor antagonist naltrindole; format: in vivo; details: elevated plus-maze with or without naltrindole given 50 min before test; peptide oral 30 min before
T2 construct: orally administered as a sample to mice 30 minutes before an elevated plus-maze test, with or without naltrindole; from tissue; host or cells: whole living animal (ddY mouse, male)
From the text: as §1, §2
The peptide YHIEPV (SEQ ID NO:2) was orally administered as a sample to mice 30 minutes before an elevated plus-maze test, with or without WAY100135, an antagonist selective for 5-HT1A receptor (n=13-15). WAY100135 was administered 50 minutes before the elevated plus-maze test. […]

[6] = stated in Non Patent Literature 1; cited from earlier work
[7] = oral 0.1 mg/kg, 30 min before 5-min test, vs vehicle saline
[8] = Example 16, oral, SYLPPLTT 0.3, 1, SYLPPLT 0.1, 0.3, 1, YHIEPV 1, 3, 10, diazepam 1, 3, 10 mg/kg, result not split by dose
[9] = oral 0.3 mg/kg, 30 min before 5-min test, vs vehicle saline
[10] = oral 1 mg/kg, 30 min before 5-min test, vs vehicle saline
[11] = oral 10 mg/kg, 30 min before 5-min test, vs vehicle saline

T2 sequence (P32300 whole entry): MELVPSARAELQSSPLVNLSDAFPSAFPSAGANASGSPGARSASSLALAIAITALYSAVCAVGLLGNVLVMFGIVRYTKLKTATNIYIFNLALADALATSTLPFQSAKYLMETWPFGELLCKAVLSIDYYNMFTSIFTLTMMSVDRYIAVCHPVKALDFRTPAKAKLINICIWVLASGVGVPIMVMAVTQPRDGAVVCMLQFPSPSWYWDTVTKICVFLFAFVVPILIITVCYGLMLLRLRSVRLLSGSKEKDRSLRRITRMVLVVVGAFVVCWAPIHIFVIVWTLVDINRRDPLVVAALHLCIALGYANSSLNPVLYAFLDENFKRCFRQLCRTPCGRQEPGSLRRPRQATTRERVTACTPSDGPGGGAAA

Compound: LLVK
- ratio of an open arm residence time [1, 7]: increased

Compound: YLVK
- ratio of an open arm residence time [1, 7]: increased

Compound: FLLVK
- ratio of an open arm residence time [1, 7]: increased

Compound: CN(C)CCCN1c2ccccc2CCc2ccccc21 [imipramine]
- immobility time [2]: reduces immobility time

Compound: CN1C(=O)CN=C(c2ccccc2)c2cc(Cl)ccc21 [diazepam, Diazepam, reference compound]
- ratio of an open arm residence time [1, 8]: increase observed

Compound: NYLLVKG
- ratio of an open arm residence time [1, 7]: increased

Compound: SYLPPLT
- immobility time ([3]; oral 0.03 mg/kg): decrease
- immobility time ([3]; oral 0.1 mg/kg): decrease
- immobility time ([3]; oral 0.3 mg/kg): decrease
- anxiolytic-like effect mediated by serotonin 5-HT1A receptor [4]: mediated by activation of serotonin 5-HT1A receptor
- ratio of an open arm residence time [1, 8]: increased
- ratio of an open arm residence time [1, 7]: increased
- ratio of an open arm residence time [1, 9]: increased
- ratio of an open arm residence time [1, 10]: statistically significant

Compound: WLLVK
- ratio of an open arm residence time [1, 7]: increased

Compound: YLLNNK
- ratio of an open arm residence time [1, 7]: increased

Compound: YLLAVK
- ratio of an open arm residence time [1, 8]: increased
- ratio of an open arm residence time [1, 7]: increased

Compound: SYLPPL
- ratio of an open arm residence time [1, 9]: increased
- ratio of an open arm residence time [1, 10]: increased
- ratio of an open arm residence time [1, 11]: increased

Compound: YHIEPV
- anxiolytic-like effect mediated by opioid receptor [5]: mediated by activation 8-opioid receptor
- anxiolytic-like effect mediated by serotonin 5-HT1A receptor [4]: not mediated by activation of serotonin 5-HTopio1A receptor
- ratio of an open arm residence time [1, 8]: increased
- ratio of an open arm residence time [1, 10]: increased
- ratio of an open arm residence time ([1]; oral 3 mg/kg, 30 min before 5-min test, vs vehicle saline): statistically significant
- ratio of an open arm residence time [1, 11]: statistically significant

Compound: YLL (NYLLVKG)
- ratio of an open arm residence time [1, 7]: increased

Compound: YLLVK
- ratio of an open arm residence time ([1]; oral 0.03 mg/kg, 30 min before 5-min test, vs vehicle saline): significantly increased
- ratio of an open arm residence time ([1]; oral 0.1 mg/kg, 30 min before 5-min test, vs vehicle saline, 0.1 mg/kg): significantly increased

Compound: LVK
- ratio of an open arm residence time [1, 7]: increased

Compound: YLLVR
- ratio of an open arm residence time [1, 7]: increased

Compound: YLLV
- ratio of an open arm residence time [1, 7]: increased

Compound: Rubiscolin-6
- anxiolytic effect [6]: has an anxiolytic effect

Compound: SYLPPLTT
- anxiolytic-like effect mediated by serotonin 5-HT1A receptor [4]: mediated by activation of serotonin 5-HT1A receptor
- ratio of an open arm residence time [1, 8]: increased
- ratio of an open arm residence time [1, 9]: increased
- ratio of an open arm residence time [1, 10]: statistically significant
